Results reported in ChEMBL document CHEMBL4825721, “Dual Glycolate Oxidase/Lactate Dehydrogenase A Inhibitors for Primary Hyperoxaluria” (ACS Med Chem Lett, 2021).
Active and inactive are the calls of the source. No cut-off for these calls is given here.

Experiments:
[1] = molecular target: T1, 2-Hydroxyacid oxidase 1 (Mus musculus, UniProt Q9WU19); test: Non competitive inhibition of mouse glycolate oxidase in hyperoxaluric-Agxt knockdown mouse primary hepatocyte assessed as reduction in oxalate production in the presence of glycolate measured upto 72 hrs by enzymatic assay; type: tissue-based
T1 sequence (Q9WU19 whole entry): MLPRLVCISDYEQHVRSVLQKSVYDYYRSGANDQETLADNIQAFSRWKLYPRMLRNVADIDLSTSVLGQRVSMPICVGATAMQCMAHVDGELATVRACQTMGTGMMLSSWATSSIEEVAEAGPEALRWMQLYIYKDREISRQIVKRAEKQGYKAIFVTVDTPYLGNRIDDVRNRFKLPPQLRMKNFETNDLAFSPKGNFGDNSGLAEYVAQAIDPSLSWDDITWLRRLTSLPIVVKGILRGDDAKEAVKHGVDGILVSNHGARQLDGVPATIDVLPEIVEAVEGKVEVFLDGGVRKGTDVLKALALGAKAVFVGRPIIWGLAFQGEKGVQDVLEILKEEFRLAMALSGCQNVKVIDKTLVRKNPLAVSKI

[2] = molecular target: T2, 2-Hydroxyacid oxidase 1 (Homo sapiens, UniProt Q9UJM8); test: Inhibition of recombinant human GOX expressed in Escherichia coli C41 (DE3) using glycolate as substrate preincubated for 10 mins followed by substrate addition measured by Amplex red and horseradish peroxidase based fluorescence assay
T2 sequence (Q9UJM8 whole entry): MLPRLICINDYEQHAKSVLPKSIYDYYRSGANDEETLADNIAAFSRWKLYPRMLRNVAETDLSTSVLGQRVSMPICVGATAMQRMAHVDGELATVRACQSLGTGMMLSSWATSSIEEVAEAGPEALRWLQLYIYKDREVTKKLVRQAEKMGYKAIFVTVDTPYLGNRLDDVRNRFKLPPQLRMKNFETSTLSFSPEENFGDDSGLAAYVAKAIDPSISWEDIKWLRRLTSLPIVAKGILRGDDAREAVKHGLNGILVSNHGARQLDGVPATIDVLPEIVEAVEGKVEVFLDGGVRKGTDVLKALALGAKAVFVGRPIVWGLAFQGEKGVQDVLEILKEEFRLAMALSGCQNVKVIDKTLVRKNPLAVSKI

[3] = molecular target: L-lactate dehydrogenase A chain (Homo sapiens, UniProt P00338); test: Inhibition of recombinant human LDHA expressed in BL21 gold (DE3) using sodium pyruvate as substrate preincubated for 10 mins followed by sodium pyruvate and […] addition
[4] = molecular target: T3, L-lactate dehydrogenase A chain (Mus musculus, UniProt P06151); test: Inhibition of recombinant mouse LDHA expressed in BL21 gold (DE3) using sodium pyruvate as substrate preincubated for 10 mins followed by sodium pyruvate and […] addition
[5] = molecular target: T3, L-lactate dehydrogenase A chain; test: Inhibition of LDHA in wild type CD1 mouse primary hepatocyte assessed as inhibition of lactate production using pyruvate as substrate measured after 30 mins by LC-MS analysis; type: tissue-based
[6] = molecular target: T4, Hydroxyacid oxidase 1 (Sus scrofa, UniProt I3LVF1); test: Inhibition of pig HAO1 in presence of NADH by spectrometry analysis
T4 sequence (I3LVF1 whole entry): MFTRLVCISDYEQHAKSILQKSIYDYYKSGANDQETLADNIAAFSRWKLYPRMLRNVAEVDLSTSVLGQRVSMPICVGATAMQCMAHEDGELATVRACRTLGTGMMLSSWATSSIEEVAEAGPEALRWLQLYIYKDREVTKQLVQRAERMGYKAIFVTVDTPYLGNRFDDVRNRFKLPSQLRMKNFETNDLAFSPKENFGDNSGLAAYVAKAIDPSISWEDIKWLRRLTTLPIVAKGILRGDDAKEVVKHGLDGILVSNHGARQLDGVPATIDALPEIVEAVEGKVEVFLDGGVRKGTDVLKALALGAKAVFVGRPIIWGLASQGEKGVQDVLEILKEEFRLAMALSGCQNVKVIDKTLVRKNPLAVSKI

[7] = system: Mus musculus; test: In vivo inhibition of GOX/LDHA in C57BL/6N mouse assessed as increase in plasma glycolate levels at 100 mg/kg, po measured after 6 hrs; type: functional, organism-based
[8] = Drug distribution in C57BL/6N mouse liver at 100 mg/kg, po measured after 6 hrs by LC-MS/MS analysis; type: ADME, organism-based; details: in vivo
[9] = molecular target: T1, 2-Hydroxyacid oxidase 1; test: Inhibition of recombinant mouse GOX expressed in Escherichia coli C41 (DE3) using glycolate as substrate preincubated for 10 mins followed by substrate addition measured by Amplex red and horseradish peroxidase based fluorescence assay
[10] = Inhibition of GOX/LDHA in Ag xt knockdown PH1 mouse primary hepatocyte assessed as reduction of oxalate production in the presence of glycolate measured after 2 hrs by ICMS analysis; type: tissue-based
[11] = In vivo inhibition of GOX/LDHA in C57BL/6N mouse assessed as increase in plasma glycolate levels at 100 mg/kg, po measured after 2 hrs; type: functional
[12] = Drug distribution in C57BL/6N mouse liver at 100 mg/kg, po measured after 2 hrs by LC-MS/MS analysis; type: ADME, organism-based; details: in vivo

SMILES | IC50 [2] [nM] | IC50 [3] [nM] | IC50 [4] [nM] | IC50 [5] [nM] | IC50 [10] [nM] | further results
O=C(O)c1nnsc1Sc1ccc(Cl)cc1 | – | – | – | – | – | Ki [1]: 4500 nM
NS(=O)(=O)c1ccc(Cc2c(-c3ccc(F)c(-c4ccc(Oc5nn[nH]c5C(=O)O)cc4)c3)nn(-c3nc(C(=O)O)cs3)c2CC2CC2)cc1F | 1.2 | 0.07 | 0.4 | 198 | – | –
NS(=O)(=O)c1ccc(Cc2c(-c3ccc(F)c(-c4ccc(-c5nn[nH]c5C(=O)O)cc4)c3)nn(-c3nc(C(=O)O)cs3)c2CC2CC2)cc1F | 3.6 | 0.3 | 0.4 | 170 | – | –
NS(=O)(=O)c1ccc(Cc2c(-c3ccc(F)c(Oc4[nH]nnc4C(=O)O)c3)nn(-c3nc(C(=O)O)cs3)c2CC2CC2)cc1F | 11 | 0.4 | 0.3 | 732 | – | –
O=C1NC(=O)C(c2ccc(-c3ccc(Br)cc3)cc2)=C1O | – | – | – | – | – | IC50 [6]: 87 nM
NS(=O)(=O)c1ccc(Cc2c(-c3ccc(F)c(-c4cccc(Oc5[nH]nnc5C(=O)O)c4)c3)nn(-c3nc(C(=O)O)cs3)c2CC2CC2)cc1F | 0.9 | 0.1 | 0.2 | 143 | – | inhibition [7]: inactive; Drug uptake [8]: Not Active
NS(=O)(=O)c1ccc(Cc2c(-c3cccc(Sc4[nH]nnc4C(=O)O)c3)nn(-c3nc(C(=O)O)cs3)c2CC2CC2)cc1F | 4.7 | 0.5 | 0.7 | 136 | 88 | IC50 [9]: 7.7 nM; inhibition [7]: inactive; Drug uptake [8]: Not Active
NS(=O)(=O)c1ccc(Cc2c(-c3ccc(F)c(-c4ccc(Sc5nn[nH]c5C(=O)O)cc4)c3)nn(-c3nc(C(=O)O)cs3)c2CC2CC2)cc1F | 1.1 | 0.3 | 0.2 | 230 | – | –
NS(=O)(=O)c1ccc(Cc2c(-c3cccc(-c4ccccc4)c3)nn(-c3nc(C(=O)O)cs3)c2CC2CC2)cc1 | – | – | 0.1 | – | 181 | –
O=C(O)c1[nH]nnc1Sc1ccc(Cl)cc1 | 6.7 | – | – | – | 149 | IC50 [9]: 14.6 nM; fold change (FC) [11]: 4; Drug uptake [12]: Active
